Values joined by “and” are separate entries in the source; they are usually repeats but may differ in a detail not shown here. Identical values can stand only once. Marks after values point to notes of the source that are not given here.
Key:
[1] = target: T1, estrogen receptor alpha (ERα) (Homo sapiens, UniProt P03372); assay: Estrogenicity reporter gene bioassay (luciferase activity) in MELN cells; assay type: cell-based
T1 construct: which endogenously express the estrogen receptor alpha (ERα); endogenous in cells; host or cells: MELN (MCF-7 stably transfected with ERE-βGlob-Luc-SV-Neo)
T1 sequence (P03372 1-595): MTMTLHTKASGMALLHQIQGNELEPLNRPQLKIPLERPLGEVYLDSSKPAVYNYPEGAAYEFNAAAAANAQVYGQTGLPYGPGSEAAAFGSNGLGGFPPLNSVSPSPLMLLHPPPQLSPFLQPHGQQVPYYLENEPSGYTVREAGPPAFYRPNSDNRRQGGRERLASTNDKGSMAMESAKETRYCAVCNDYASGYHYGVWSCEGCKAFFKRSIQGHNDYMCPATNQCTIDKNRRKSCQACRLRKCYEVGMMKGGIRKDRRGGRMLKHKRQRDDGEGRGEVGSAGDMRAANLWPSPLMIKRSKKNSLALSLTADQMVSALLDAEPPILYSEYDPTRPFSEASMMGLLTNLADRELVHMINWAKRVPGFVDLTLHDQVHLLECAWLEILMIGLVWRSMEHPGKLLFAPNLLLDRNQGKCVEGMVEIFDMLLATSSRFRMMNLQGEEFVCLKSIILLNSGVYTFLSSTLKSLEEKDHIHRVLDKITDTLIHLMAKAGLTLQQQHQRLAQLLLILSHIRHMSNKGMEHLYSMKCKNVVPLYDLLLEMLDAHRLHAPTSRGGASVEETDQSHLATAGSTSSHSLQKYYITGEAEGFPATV
Description: Briefly, the transactivation bioassay (Reporter gene assay) used are based on the use of breast and uterine cancer cell lines transfected with different native or modified hormone receptors. The resulting cell lines further contain a reporter gene regulated by estrogens through the estrogen response element, the globin promoter and the luciferase gene.
MELN cells were obtained by means of transfecting the MCF-7 breast cancer cell line [which endogenously express the estrogen receptor alpha (ERα)] with an estrogen sensitive response element (ERE-βGlob-Luc-SV-Neo). The selection of clones resistant to geneticin was performed using a concentration of 1 mg/mL. The maintenance medium for this cell line is DMEM F12 (Dulbecco's modified Eagle medium) with phenol red supplemented with 10% FBS, 1% of penicillin/streptomycin and 1 mg/mL of geneticin. Due to the estrogenic activity of the phenol red and FBS, the experiments are preformed in medium known as experimental medium, i.e., a culture medium without phenol red and with FBS lacking of estrogens. The experimental medium for this line is DMEM without phenol red supplemented with 3% of FBS treated with carbon-dextran.
The cells were seeded at a density of 5x10^4 cells per well in white opaque 96 well plates in 150 µL of experimental medium. After 8 hours, the compounds to be assayed (p-nitrolophine and estradiol) were prepared (concentrated 4x) in the same medium and were added to each well (50 µl). The cells were incubated for 16 hours at 37°C. At the end of the incubation, the medium was removed and replaced with fresh medium containing […] luciferin [at that concentration, luciferin diffuses into cell producing a luminescent signal which is stable after 5 minutes and for at least 2 hours]. The plates were then introduced in the luminometer to measure the luminescence for 2 seconds. A YicroBeta Trilux luminometer (EGG Wallac) apparatus was used to detect luciferase activity.
The assays were preformed in quadruple for each concentration (0.01-10 µM) in at least three independent experiments. […] The values of luciferase activity obtained were analyzed using the one-way ANOVA statistic test. The differences were considered significant when P was less than […] (P < 0.05).

[2] = Absorption spectrum in methanol (195 - 400 nm); assay type: physicochemical; conditions: peak wavelength, 10 mg/ml
Protocol: In order to determine the absorption spectrum, a solution of 10 mg/ml of methanol was prepared from each of the substances. The methanol in turn was used to adjust the zero absorbance in each of the wavelengths in the range of 195 - 400 nm.

[3] = system: inflammation induced by phorbol 12-myristate-13-acetate (PMA); assay: Topical anti-inflammatory activity: ear inflammation induced by PMA in mice; assay type: in vivo; design: RE / RE Average: unit not given here; conditions: for LE Average: left ear (non treated); for LE Average / RE Average: group average; for RE Average: right ear (treated); for LE: weight of 6 mm portion of left ear (non treated); for LE / RE: individual mice; for RE: weight of 6 mm portion of right ear (treated)
Protocol: The topical anti-inflammatory activity of p-nitrolophine has been analyzed in this study since erythema is a inflammatory process. Specifically, the inhibition of inflammation induced by phorbol 12-myristate-13-acetate (PMA) was evaluated and compared with an anti-inflammatory product of reference (indometacin). 37 mice were divided into the following groups: positive control group (PMA 0.5 mg); negative control group (indometacin 0.5 mg); treated groups (0.5 mg and 1 mg of p-nitrolophine). All the solutions were prepared using acetone (ppa) as vehicle. 20 µL of solution of 25 mg/mL of phorbol 12-myristate-13-acetate (PMA) [Fluka cod 79346] (10 µL in each face) was administered in the right ear of each mouse. Immediately after administering the PMA, nothing more was administered into the positive control group; 20 µL of the solution of 25 mg/mL of indometacin was administered to the negative control group, and 20 µL of the solution of 25 or 50 mg/mL of 4-nitrolophine was administered in the same manner to the treated groups. Animals having no lesions or skin and ear irritation were used.
After 4 hours of post-treatment, the mice were sacrificed through cervical fracture and a portion of 6 mm in diameter was obtained from each ear with a hollow punch which was weight in precision analytical balance. The difference in weight (Δ) between the right ear (treated) and the left ear (non treated) for each animal and for each group were calculated. The percentage of inhibition (% inh) was estimated and calculated according to the following equation: % inh = 100(1-Δt/Δc) [formula] wherein Δt represents the difference in the treated groups and Δc the difference for the […].
In order to analyze the results, an one way ANOVA and Dunnet test for multiple comparison was used, values of P<0.05 were considered significant. A software, Graphpad Instat Version 3.06, was used for such purposes.

O=[N+]([O-])c1ccc(-c2nc(-c3ccccc3)c(-c3ccccc3)[nH]2)cc1 [p-nitrolophine, 2-(4-nitrophenyl)-4,5-diphenyl-1H-imidazole]
activity at 0.01 µM [1]: 15.2 ± 0.6%
activity at 0.03 µM [1]: 15.3 ± 0.5%
activity at 0.1 µM [1]: 15.6 ± 0.3%
activity at 0.3 µM [1]: 15.5 ± 0.9%
activity at 1 µM [1]: 16 ± 0.4%
activity at 3 µM [1]: 15.2 ± 0.4%
activity at 10 µM [1]: 15.6 ± 0.9%
estrogenicity ([1]; MELN cells, up to 10 µM, conclusion in words): not an estrogenic compound
maximum absorption [2]: 379 nm
% inhibition ([3]; 4 hours): 100** (q = 9.5) %
Average (Δ = RE - LE) ([3]; Dose (mg/ear) 0.5, 4 hours): -0.13
% inhibition ([3]; Dose (mg/ear) 1, n=4, tendency, not statistically compared): ~90%
Average (Δ = RE - LE) ([3]; Dose (mg/ear) 1, n=4, 4 hours): 0.52
LE Average ([3]; 0.5 mg group, 4 hours): 6.7
LE Average ([3]; 1 mg group, 4 hours): 5.9
RE Average ([3]; 0.5 mg, 4 hours): 6.6
RE Average ([3]; 1 mg, 4 hours): 6.4
LE ([3]; 0.5 mg group, 4 hours, listed as 4-nitrolophine): 9.9 and 7.5 (2×) and 6.2 (2×) and 6.4 and 6.7 (2×) and 5.6 and 5.2 and 5.9 and 7.8 and 6
LE ([3]; 1 mg group, 4 hours, listed as 4-Nitrolophine): 5.6 and 5.8 and 5,5 and 6.6
RE ([3]; 0.5 mg, 4 hours, listed as 4-nitrolophine): 7.3 and 7 and 5.9 (2×) and 5.6 and 6.6 (2×) and 7.2 and 7.8 and 6.5 and 6 and 7.7 and 5.8
RE ([3]; 1 mg, 4 hours, listed as 4-Nitrolophine): 5.9 and 7.3 and 6.2 (2×)

Source: EP2444396A1, “PHOTOPROTECTIVE COMPOSITION” (Apoteknos Para La Piel, S.L., priority 2009, dated 2010)
